Target: T1, Human CYP2C8 (Homo sapiens, UniProt P10632)
T1 construct: purchased Cypex; host or cells: E. coli
T1 sequence (P10632 1-490): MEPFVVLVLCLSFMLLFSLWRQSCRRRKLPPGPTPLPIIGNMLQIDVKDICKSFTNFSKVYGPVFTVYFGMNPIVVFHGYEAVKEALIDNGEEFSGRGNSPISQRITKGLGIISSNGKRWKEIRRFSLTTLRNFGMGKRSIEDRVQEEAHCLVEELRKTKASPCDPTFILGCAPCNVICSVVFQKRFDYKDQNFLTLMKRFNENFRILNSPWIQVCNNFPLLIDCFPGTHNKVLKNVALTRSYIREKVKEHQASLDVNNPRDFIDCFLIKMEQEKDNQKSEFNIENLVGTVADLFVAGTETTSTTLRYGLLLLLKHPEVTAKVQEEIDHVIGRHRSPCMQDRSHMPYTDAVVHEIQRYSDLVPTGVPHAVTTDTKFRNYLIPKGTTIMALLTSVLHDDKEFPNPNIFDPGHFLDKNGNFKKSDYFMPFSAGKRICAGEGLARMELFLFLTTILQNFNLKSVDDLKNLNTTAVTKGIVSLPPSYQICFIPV
Test: Inhibitory activity of drug-metabolizing enzyme (human CYP2C8 inhibition effect)
Assay type: in vitro ADME
Settings: E. coli-expressed CYP2C8, Luciferin-ME substrate, 37° C. 30 min, from inhibition at 1 and 10 μmol/L
Experimental: The reaction was carried out in a 384-well plate. As the positive control substance (CYP2C8: quercetin), a solution, which had been adjusted with DMSO to have 300 times higher concentration than the final concentration (CYP2C8: 22.5 and 225 μmol/L) and been 75-fold diluted with purified water containing 2.7% acetonitrile, was prepared (CYP2C8: 0.3 and 3 μmol/L). […] Thereafter, 16 μL of luciferase solution was added to stop the reaction and to allow luciferin to emit light, and the luminescence intensity of the reaction solution was measured. The inhibition rate is a reduction rate (inhibition rate) of the luminescence intensity when compared with the control in which the reaction was carried out by the addition of DMSO in place of the test compound solution. The inhibition rate was calculated from the following mathematical formula. Inhibition rate (%)=100−{(luminescence intensity of test compound−background luminescence intensity)/(luminescence intensity of control−background luminescence intensity)×100} [Math. […]
The IC50 value of the compound of the present invention was measured using the measurement method described above.

Row | IC50 [µM] | Structure (SMILES)
1 | > 10 | COc1cc2nccc(Oc3ccc(NC(=O)c4cc(C(C)=O)cn(-c5ccccc5)c4=O)nc3)c2cc1OC [Example 21, 5-acetyl-N-{5-[(6,7-dimethoxy-4-quinolinyl)oxy]-2-pyridinyl}-2-oxo-1-phenyl-1,2-dihydro-3-pyridinecarboxamide]
2 | > 10 | COc1cc2nccc(Oc3ccc(NC(=O)c4c5c(cn(-c6ccccc6)c4=O)C(=O)CCC5)nc3)c2cc1OC [Example 42, N-{5-[(6,7-dimethoxy-4-quinolinyl)oxy]-2-pyridinyl}-3,8-dioxo-2-phenyl-2,3,5,6,7,8-hexahydro-4-isoquinolinecarboxamide]
